Reference: patent US7417030B2, “Indazole peptidomimetics as thrombin receptor antagonists” (Ortho-McNeil Pharmaceutical, Inc., priority 1999, dated 2008)

What was measured:
[1] = target: T1, Thrombin receptor (PAR-1) (Homo sapiens, UniProt P25116); assay: In vitro thrombin receptor binding assay; details: CHRF membranes; tritiated 721-40 (Ser-pFPhe-Har-Leu-Har-Lys-Tyr-NH2) radioligand; read-out: IC50 (μM) Thr Recptr Bdg
T1 construct: CHRF membranes (Jones, Biochim. Biophys. Acta 1992, 1136, 272) are thawed from −70° C; endogenous in cells; host or cells: CHRF cell membranes
T1 sequence (P25116 22-425): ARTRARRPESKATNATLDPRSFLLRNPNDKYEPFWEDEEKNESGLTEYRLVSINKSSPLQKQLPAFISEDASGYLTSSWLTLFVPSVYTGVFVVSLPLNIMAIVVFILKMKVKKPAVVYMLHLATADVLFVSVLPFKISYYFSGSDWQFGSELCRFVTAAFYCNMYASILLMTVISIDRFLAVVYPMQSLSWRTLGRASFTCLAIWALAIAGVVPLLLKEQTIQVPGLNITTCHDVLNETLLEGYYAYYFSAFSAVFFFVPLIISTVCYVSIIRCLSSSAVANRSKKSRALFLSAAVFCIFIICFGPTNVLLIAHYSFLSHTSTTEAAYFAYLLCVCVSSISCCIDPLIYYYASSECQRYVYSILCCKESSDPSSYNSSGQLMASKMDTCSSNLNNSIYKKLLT
Experimental: In Vitro Thrombin Receptor Binding Assay
CHRF membranes (Jones, Biochim. Biophys. Acta 1992, 1136, 272) are thawed from −70° C., centrifuged at maximum speed for 5 min, washed twice with binding buffer (50 mM HEPES containing 5 mM MgCl2 and 0.1% BSA), and re-suspended in binding buffer (25 μg/[…]). 100 μL of membranes are added to the 24-Wallac plates and delivered to the Tomtech apparatus. In a typical experiment, 6 μL of samples (from a 125 μg/mL intermediary plate, 20% DMSO) and 44 μL buffer are delivered to the plates (final conc. of compounds is 3.7 μg/mL, 0.6% DMSO). Similarly, 6 μL 20% DMSO and 44 μL buffer are delivered to both column 1 (NSB) and column 12 (TB). […] Ser-pFPhe-Har-Leu-Har-Lys-Tyr-NH2 (SEQ. ID. No. 2) (721-40; 500 μM in deionized water) is added to column 1. 50 μL tritiated 721-40 (specific activity 46 Ci/mmol) is added to all the wells. The plates are mixed well for 20 seconds, incubated for 30 min, and then harvested with 10 mM HEPES/138 mM NaCl using the Skatron harvester. The filters (GF/C Brandel FPXLR 296) are presoaked 3 h in 0.5% polyethylenimine in HEPES/0.1M N-acetylglucosamine) are set in Saran™ wrap and dried for 3 min in the microwave, and placed in sample bags (Wallac 1450-432). 4.5 mL scintillation fluid (Wallac, Betaplate Scint 1205-440) is added. The bags are sealed, placed in filter cassettes (Wallac 1450-104), and analyzed on the microbeta counter.

[2] = test system: platelet aggregation stimulated by thrombin (gel-filtered platelets); assay: In vitro inhibition of thrombin-induced gel-filtered platelet aggregation assay; type: cell-based; details: thrombin-induced gel-filtered human platelet aggregation; agonist thrombin 50 μL of 1 unit/mL; read-out: IC50 (μM) Thr GFP Aggr
Experimental: In Vitro Inhibition Of Thrombin-Induced Gel-Filtered Platelet Aggregation Assay
The percentage of platelet aggregation is calculated as an increase in light transmission of compound-treated platelet concentrate vs. control-treated platelet concentrate. Human blood is obtained from drug free, normal donors in tubes containing 0.13M sodium citrate. Platelet rich plasma (PRP) is collected by centrifugation of whole blood at 200×g for 10 min at 25° C. The PRP (5 mL) is gel filtered through Sepharose 2B (bed volume 50 mL), and the platelet count is adjusted to 2×10^7 platelets per sample. The following constituents are added to a siliconized cuvette: concentrated platelet filtrate and Tyrode's buffer (0.14M NaCl, 0.0027M KCl, 0.012M NaHCO3, 0.76 mM Na2HPO4, 0.0055M glucose, 2 mg/mL BSA and 5.0 mM HEPES @ pH 7.4) in an amount equal to 350 μL, 50 μL of 20 mM calcium and 50 μL of the test compound. Aggregation is monitored in a BIODATA aggregometer for the 3 min following the addition of agonist (thrombin 50 μL of 1 unit/mL).

SMILES | IC50 [1] [µM] | IC50 [2] [µM]
NCC[C@H](NC(=O)[C@H](Cc1ccc(F)c(F)c1)NC(=O)Nc1ccc2c(CN3CCCC3)nn(Cc3c(Cl)cccc3Cl)c2c1)C(=O)NCc1ccccc1 [Compound 1, Benzenepropanamide, N-[(1S)-3-amino-1-[[(phenylmethyl)amino]carbonyl]propyl]-α-[[[[[1-(2,6-dichlorophenyl)methyl]-3-(1-pyrrolidinylmethyl)-1H-indazol-6-yl]amino]carbonyl]amino]-3,4-difluoro-,(αS)-] | 0.04 | 0.31
NCC[C@H](NC(=O)[C@H](Cc1ccc(Cl)cc1)NC(=O)Nc1ccc2c(CN3CCCC3)nn(Cc3c(Cl)cccc3Cl)c2c1)C(=O)NCc1ccccc1 [Compound 2, Benzenepropanamide, N-[(1S)-3-amino-1-[[(phenylmethyl)amino]carbonyl]propyl]-α-[[[[[1-(2,6-dichlorophenyl)methyl]-3-(1-pyrrolidinylmethyl)-1H-indazol-6-yl]amino]carbonyl]amino]-4-chloro-, (αS)-] | 20 | 0.26
NCCNC(=O)[C@H](Cc1ccncc1)NC(=O)[C@H](Cc1ccc(F)c(F)c1)NC(=O)Nc1ccc2c(CN3CCCC3)nn(Cc3c(Cl)cccc3Cl)c2c1 [Compound 3, L-Alaninamide, 3,4-difluoro-N-[[[1-[(2,6-dichlorophenyl)methyl]-3-(1-pyrrolidinylmethyl)-1H-indazol-6-yl]amino]carbonyl]-L-phenylalanyl-N-(2-aminoethyl)-3-(4-pyridinyl)-] | 0.03 | 0.5
C[C@@H](NC(=O)[C@H](CCN)NC(=O)[C@H](Cc1ccc(F)c(F)c1)NC(=O)Nc1ccc2c(CN3CCCC3)nn(Cc3c(Cl)cccc3Cl)c2c1)c1ccccc1 [Compound 4] | 0.15 | 0.32
NCC[C@H](NC(=O)[C@H](Cc1ccc(F)c(F)c1)NC(=O)Nc1ccc2c(CN3CCCC3)nn(Cc3c(Cl)cccc3Cl)c2c1)C(=O)N[C@H](CO)c1ccccc1 [Compound 5] | 0.32 | 0.66
NCCNC(=O)[C@H](Cc1cccs1)NC(=O)[C@H](Cc1ccc(Cl)cc1)NC(=O)Nc1ccc2c(CN3CCCC3)nn(Cc3c(Cl)cccc3Cl)c2c1 [Compound 6] | 5.8 | 0.3
